Data published in patent publication US12503475B2 (Centessa Pharmaceuticals (UK) Limited, priority 2020, dated 2025).

Target: T1, human orexin type 2 receptor (hOX2R) (Homo sapiens, UniProt O43614)
T1 construct: expressed in transfected cells
T1 sequence (O43614 1-444): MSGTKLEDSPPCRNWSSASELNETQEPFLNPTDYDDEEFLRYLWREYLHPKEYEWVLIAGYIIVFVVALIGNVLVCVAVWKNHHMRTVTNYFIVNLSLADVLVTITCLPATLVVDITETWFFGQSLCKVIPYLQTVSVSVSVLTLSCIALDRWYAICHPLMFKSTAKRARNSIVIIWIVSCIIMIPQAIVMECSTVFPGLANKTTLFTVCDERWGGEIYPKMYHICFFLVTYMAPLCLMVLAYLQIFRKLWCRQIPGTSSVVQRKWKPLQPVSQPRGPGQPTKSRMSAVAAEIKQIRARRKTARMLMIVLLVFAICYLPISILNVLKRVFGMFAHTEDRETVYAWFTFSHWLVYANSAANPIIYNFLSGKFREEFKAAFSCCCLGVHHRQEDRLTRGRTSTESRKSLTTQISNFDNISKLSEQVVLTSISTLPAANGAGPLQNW
Test: Measurement of orexin type 2 receptor agonist activity (FLIPR calcium fluorescence)
Format: cell-based
Conditions: CHO cells expressing hOX2R, FLIPR calcium fluorescence; for EC50: read-out: hOx2 pEC50 (converted); for Emax: CHO, read-out: hOx2 Emax (%)
Outline: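 Agonism was read as fluorescence in cells stably expressing human OX2R. E. is the response at 10 μM relative to orexin A as full agonist (100%).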

| EC50 [nM] | Emax [%] | Compound | hOx2 Emax (%) | hOx2 pEC50 |
| --- | --- | --- | --- | --- |
|  |  | CCNC(=O)N1CC2(CC2)[C@H](NS(=O)(=O)CC)[C@@H]1Cc1cccc(-c2ccccc2)c1F [Compound 89] | A (Emax ranging between 90 and 100) | ***** (pEC50 ranging between 9.0 and 10.1) |
| 0.0794 to 1 | 90 to 100 | O=C(NCC(F)F)N1CC2(CC2)[C@H](NS(=O)(=O)CF)[C@@H]1Cc1cccc(-c2cc(F)cc(F)c2)c1F [Compound 411] |  |  |
| 1 to 10 | 90 to 100 | CCS(=O)(=O)NC1C(Cc2cccc(-c3ccccc3)c2)N(C(=O)N2CCC2)CC12CC2 (racemic) [Compound 3] |  |  |
| 10 to 100 | 70 to 80 | [2H]C([2H])([2H])C([2H])([2H])NC(=O)N1CC2(CC2)[C@H](NS(C)(=O)=O)[C@@H]1Cc1cccc(-c2ccccc2)c1OC [Compound 363, (6S,7S)-N-(ethyl-d5)-6-((2-methoxy-[1,1′-biphenyl]-3-yl)methyl)-7-(methylsulfonamido)-5-azaspiro[2.4]heptane-5-carboxamide] |  |  |
| 1 to 10 |  | CS(=O)(=O)N[C@@H]1[C@H](Cc2cccc(-c3ccccc3)c2)N(C(=O)[C@H](O)C(F)(F)F)CC12CC2 [Compound 43, N-((6S,7S)-6-([1,1′-biphenyl]-3-ylmethyl)-5-((S)-3,3,3-trifluoro-2-hydroxypropanoyl)-5-azaspiro[2.4]heptan-7-yl)methanesulfonamide] | A (Emax ranging between 90 and 100) |  |
| 10 to 100 | 80 to 90 | CC(C)(O)C(=O)N1CC2(CC2)[C@H](NS(=O)(=O)C(F)F)[C@@H]1Cc1cccc(-c2cccc(F)c2)c1F [Compound 164, N-((6S,7S)-6-((2,3′-difluoro-[1,1′-biphenyl]-3-yl)methyl)-5-(2-hydroxy-2-methylpropanoyl)-5-azaspiro[2.4]heptan-7-yl)-1,1-difluoromethanesulfonamide] |  |  |
| 1 to 10 | 90 to 100 | CS(=O)(=O)N[C@@H]1[C@H](Cc2cccc(-c3ccccc3)c2F)N(C(=O)NCC2COC2)CC12CC2 [Compound 334, (6S,7S)-6-((2-fluoro-[1,1′-biphenyl]-3-yl)methyl)-7-(methylsulfonamido)-N-(oxetan-3-ylmethyl)-5-azaspiro[2.4]heptane-5-carboxamide] |  |  |
| 1 to 10 | 90 to 100 | O=C(NCC(F)F)N1CC2(CC2)[C@H](NS(=O)(=O)C(F)F)[C@@H]1Cc1cc(F)cc(-c2ccccc2)c1F [Compound 389, (6S,7S)-6-((2,5-difluoro-[1,1′-biphenyl]-3-yl)methyl)-N-(2,2-difluoroethyl)-7-((difluoromethyl)sulfonamido)-5-azaspiro[2.4]heptane-5-carboxamide] |  |  |
| 1 to 10 | 90 to 100 | COC1CN(C(=O)N2CC3(CC3)[C@H](NS(=O)(=O)N(C)C)[C@@H]2Cc2cccc(-c3ccccc3)c2F)C1 [Compound 118, N-((6S,7S)-6-((2-fluoro-[1,1′-biphenyl]-3-yl)methyl)-5-(3-methoxyazetidine-1-carbonyl)-5-azaspiro[2.4]heptan-7-yl)-N,N-dimethylsulfuric diamide] |  |  |
| 1 to 10 | 90 to 100 | O=C([C@H](O)C(F)(F)F)N1CC2(CC2)[C@H](NS(=O)(=O)CF)[C@@H]1Cc1cccc(-c2ccccc2)c1F [Compound 98, 1-fluoro-N-((6S,7S)-6-((2-fluoro-[1,1′-biphenyl]-3-yl)methyl)-5-((S)-3,3,3-trifluoro-2-hydroxypropanoyl)-5-azaspiro[2.4]heptan-7-yl)methanesulfonamide] |  |  |
| 1 to 10 | 90 to 100 | O=C([C@@H](O)C1CC1)N1CC2(CC2)[C@H](NS(=O)(=O)C(F)F)[C@@H]1Cc1cccc(-c2ccccc2)c1F [Compound 170, N-((6S 7S)-5-((S)-2-cyclopropyl-2-hydroxyacetyl)-6-((2-fluoro-[1,1′-biphenyl]-3-yl)methyl)-5-azaspiro[2.4]heptan-7-yl)-1,1-difluoromethanesulfonamide] |  |  |
| 1 to 10 | 90 to 100 | O=C(NCC1(F)CC1)N1CC2(CC2)[C@H](NS(=O)(=O)C(F)F)[C@@H]1Cc1cc(F)cc(-c2ccccc2)c1F [Compound 417, (6S,7S)-6-(2,5-difluoro-[1,1′-biphenyl]-3-yl)methyl)-7-((difluoromethyl)sulfonamido)-N-((1-fluorocyclopropylmethyl)-5-azaspiro[2.4]heptane-5-carboxamide] |  |  |
| 1 to 10 | 90 to 100 | N#CC1(C(=O)N2CC3(CC3)[C@H](NS(=O)(=O)C(F)F)[C@@H]2Cc2cccc(-c3ccccc3)c2F)CCC1 [Compound 403] |  |  |
| 10 to 100 | 90 to 100 | [2H]C([2H])([2H])N(C(=O)N1CC2(CC2)[C@H](NS(C)(=O)=O)[C@@H]1Cc1cc(F)cc(-c2ccccc2)c1F)C([2H])([2H])[2H] [Compound 355, (6S,7S)-6-((2,5-difluoro-[1,1′-biphenyl]-3-yl)methyl)-N,N-bis(methyl-d3)-7-(methylsulfonamido)-5-azaspiro[2.4]heptane-5-carboxamide] |  |  |
| 1 to 10 | 90 to 100 | C[C@@H](F)S(=O)(=O)N[C@@H]1[C@H](Cc2cccc(-c3ccccc3)c2F)N(C(=O)[C@H]2CCO2)CC12CC2 [Compound 193, (S)-1-fluoro-N-((6S,7S)-6-((2-fluoro-[1,1′-biphenyl]-3-yl)methyl)-5-((R)-oxetane-2-carbonyl)-5-azaspiro[2.4]heptan-7-yl)ethane-1-sulfonamide] |  |  |
| 0.0794 to 1 | 90 to 100 | C[C@H](CF)NC(=O)N1CC2(CC2)[C@H](NS(=O)(=O)CF)[C@@H]1Cc1cccc(-c2ccccc2)c1F [Compound 158] |  |  |
| 1 to 10 | 90 to 100 | C[C@@H](NC(=O)N1CC2(CC2)[C@H](NS(=O)(=O)CF)[C@@H]1Cc1cccc(-c2ccccc2)c1F)C(F)F [Compound 219, (6S,7S)-N-((R)-1,1-difluoropropan-2-yl)-6-((2-fluoro-[1,1′-biphenyl]-3-yl)methyl)-7-((fluoromethyl)sulfonamido)-5-azaspiro[2.4]heptane-5-carboxamide] |  |  |
| 1 to 10 | 90 to 100 | N#C[C@]1(C(=O)N2CC3(CC3)[C@H](NS(=O)(=O)CF)[C@@H]2Cc2cccc(-c3ccccc3)c2F)CCO1 [Compound 226, N-((6S,7S)-5-((S)-2-cyanooxetane-2-carbonyl)-6-((2-fluoro-[1,1′-biphenyl]-3-yl)methyl)-5-azaspiro[2.4]heptan-7-yl)-1-fluoromethanesulfonamide] |  |  |
| 1 to 10 | 90 to 100 | O=C([C@H]1CCO1)N1CC2(CC2)[C@H](NS(=O)(=O)CF)[C@@H]1Cc1cccc(-c2cccc(F)c2F)c1F [Compound 168, 1-fluoro-N-((6S,7S)-5-((R)-oxetane-2-carbonyl)-6-((2,2′,3′-trifluoro-[1,1′-biphenyl]-3-yl)methyl)-5-azaspiro[2.4]heptan-7-yl)methanesulfonamide] |  |  |
| 1 to 10 | 90 to 100 | O=C(NCC(F)(F)F)N1CC2(CC2)[C@H](NS(=O)(=O)C(F)F)[C@@H]1Cc1cccc(-c2ccccc2)c1F [Compound 200, (6S,7S)-7-((difluoromethyl)sulfonamido)-6-((2-fluoro-[1,1′-biphenyl]-3-yl)methyl)-N-(2,2,2-trifluoroethyl)-5-azaspiro[2.4]heptane-5-carboxamide] |  |  |
| 10 to 100 | 90 to 100 | CC(C)C(=O)N1CC2(CC2)[C@H](NS(C)(=O)=O)[C@@H]1Cc1cccc(-c2ccccc2)c1 [Compound 17, N-((6S,7S)-6-([1,1′-biphenyl]-3-ylmethyl)-5-isobutyryl-5-azaspiro[2.4]heptan-7-yl)methanesulfonamide] |  |  |
